Data on 52 compounds can be found in patent US20200275661A1 (published 2020).

For orientation: melting point means the temperature of the solid-liquid transition. Compound `Fc1ccc(C(Oc2cc(Br)c3ncccc3c2)c2nnco2)nc1` (stereo not shown) came in with a melting point of 176 to 182 °C.

Compound `Cc1nnc(C(Oc2ccc3ncccc3c2)c2ccccc2)o1` (stereo not shown) returned a melting point of 114 to 116 °C. In the case of `CSc1cnc2ccc(OC(c3cc(Cl)c(Cl)cn3)c3nnco3)cc2c1` (stereo not shown), the melting point was 179 to 181 °C. The compound `c1ccc(C(Oc2ccc3ncccc3c2)c2ncco2)cc1` (stereo not shown) showed a melting point of 122 to 124 °C. `Fc1ccc(C(Oc2ccc3ncccc3c2)c2ncco2)nc1` (stereo not shown): the melting point is 104 to 110 °C. On to `Cc1cnc2ccc(OC(c3ccc(Br)cn3)c3ncco3)cc2c1` (stereo not shown), for which the melting point is 136 to 139 °C. For `Cc1cnc2ccc(OC(c3ccc(C#N)cn3)c3ncco3)cc2c1` (stereo not shown) the value was 168 to 172 °C; for `c1ccc(C(Oc2ccc3ncccc3c2)c2ccco2)cc1` (stereo not shown), 215 °C (dec.). Turning to `Fc1ccc(C(Oc2ccc3ncccc3c2)c2ncon2)nc1` (stereo not shown), the melting point lay in the range of 115 to 119 °C. In turn, `c1ccc(C(Oc2ccc3ncccc3c2)c2ncon2)cc1` (stereo not shown) came in with a melting point of 138 to 140 °C. `c1ccc(C(Oc2ccc3ncccc3c2)c2ccon2)cc1` (stereo not shown) showed a melting point of 126 to 128 °C. Then `Cc1cc(C(Oc2ccc3ncccc3c2)c2ccccc2)no1` (stereo not shown), with 108 to 110 °C; and `CCOC(=O)c1coc(C(Oc2ccc3ncccc3c2)c2ccccc2)n1` (stereo not shown), with 103 to 107 °C.

With `CC(C)(O)c1coc(C(Oc2ccc3ncccc3c2)c2ccccc2)n1` (stereo not shown), the melting point lay within 130 to 134 °C. In turn, `Cn1nnnc1C(Oc1ccc2ncccc2c1)c1ccccc1` (stereo not shown) came in with a melting point of 111 to 113 °C. As to `c1ccc(C(Oc2ccc3ncccc3c2)c2nncs2)cc1` (stereo not shown), the melting point lay in the range of 149 to 151 °C. For `Brc1c(OC(c2ccccc2)c2ncon2)ccc2ncccc12` (stereo not shown) the value was 53 to 55 °C; for `Fc1ccc(C(Oc2ccc3ncccc3c2)c2nncs2)nc1` (stereo not shown), 92 to 94 °C. Then `c1ccc(C(Oc2ccc3ncccc3c2)c2ccccn2)cc1` (stereo not shown), with 71 to 73 °C; and `Brc1cnc2ccc(OC(c3ccccc3)c3ncco3)cc2c1` (stereo not shown), with 136 to 137 °C; and `c1ccc(C(Oc2ccc3nccnc3c2)c2nnco2)cc1` (stereo not shown), with 155 to 157 °C. Then `c1ccc(C(Nc2ccc3ncccc3c2)c2nnco2)cc1` (stereo not shown), with 161 to 163 °C; and `c1ccc(C(Oc2cnc3ccccc3c2)c2nnco2)cc1` (stereo not shown), with 108 to 110 °C. The compound `c1ccc(C(Sc2ccc3ncccc3c2)c2nnco2)cc1` (stereo not shown) showed a melting point of 126 to 130 °C.

In turn, `Fc1ccc(C(Oc2cnc3ncccc3c2)c2nnco2)nc1` (stereo not shown) gave a melting point of 154 to 158 °C. For `FC(F)Oc1ccc(C(Oc2ccc3ncccc3c2)c2nncs2)nc1` (stereo not shown) the value was 60 to 62 °C; for `[O-][n+]1cccc2cc(OC(c3ccc(F)cn3)c3nnco3)ccc21` (stereo not shown), 176 to 177 °C.

With `[O-][n+]1cc(F)ccc1C(Oc1ccc2c(ccc[n+]2[O-])c1)c1nnco1` (stereo not shown), the melting point lay within 224 to 226 °C. Then `Fc1ccc(C(Oc2cccc3ncccc23)c2nnco2)nc1` (stereo not shown), with 198 to 200 °C. Then `Clc1ccc(C(Nc2ccc3ncccc3c2)c2nnco2)cc1` (stereo not shown), with 151 to 152 °C.

Consider `c1ccc(C(Oc2cc3cccnc3cn2)c2nnco2)cc1` (stereo not shown), for which the melting point is 136 to 139 °C.

In the case of `CO/N=C/c1cnc2ccc(OC(c3ccc(F)cn3)c3nnco3)cc2c1` (stereo not shown), the melting point lay in the range of 148 to 152 °C. For `CO/N=C/c1cc(OC(c2ccc(F)cn2)c2nnco2)cc2cccnc12` (stereo not shown) the value was 164 to 166 °C. Regarding `CCO/N=C/c1cc(OC(c2ccc(F)cn2)c2nnco2)cc2cccnc12` (stereo not shown), the melting point lay within 182 to 184 °C. Then `CC(C)O/N=C/c1cc(OC(c2ccc(F)cn2)c2nnco2)cc2cccnc12` (stereo not shown), with 158 to 159 °C; and `CO/N=C/c1cnc2ccc(OC(c3ccc(F)cn3)c3nnco3)c(Br)c2c1` (stereo not shown), with 172 to 173 °C. `Fc1ccc(C(Oc2ccc3ncccc3c2)c2ncno2)nc1` (stereo not shown) came in with a melting point of 100 to 104 °C.

`c1ccc(C(Oc2ccc3ncccc3c2)c2cnco2)cc1` (stereo not shown): the melting point lay in the range of 110 to 113 °C.

Compound `Cc1noc(C(Oc2ccc3ncccc3c2)c2ccc(F)cn2)n1` (stereo not shown) gave a melting point of 79 to 81 °C. Compound `Fc1ccc(C(Oc2cc(/C=C/C(F)(F)F)c3ncccc3c2)c2nnco2)nc1` (stereo not shown) came in with a melting point of 147 to 150 °C. For `CCO/N=C/c1cnc2ccc(OC(c3ccc(F)cn3)c3nnco3)cc2c1` (stereo not shown) the value was 130 to 133 °C; for `CC(C)O/N=C/c1cnc2ccc(OC(c3ccc(F)cn3)c3nnco3)cc2c1` (stereo not shown), 112 to 115 °C; for `Fc1ccc(C(Oc2ccc3ncc(/C=N/OCC(F)(F)F)cc3c2)c2nnco2)nc1` (stereo not shown), 118 to 120 °C.

`CO/N=C/c1cnc2ccc(O[C@@H](c3ccc(F)cn3)c3nnco3)cc2c1` came in with a melting point of 136 to 137 °C.

`CO/N=C/c1cnc2ccc(O[C@H](c3ccc(F)cn3)c3nnco3)cc2c1` came in with a melting point of 136 to 138 °C. With `CO/N=C/c1ccnc(C(Oc2cc(F)c3ncccc3c2)c2nnco2)c1` (stereo not shown), the melting point lay in the range of 174 to 177 °C. For `Clc1ccc(C(Nc2ccc3ncc(Br)cc3c2)c2nnco2)nc1` (stereo not shown) the value was 214 to 217 °C. The compound `CO/N=C/c1ccnc(C(Oc2cc(Cl)c3ncccc3c2)c2nnco2)c1` (stereo not shown) displayed a melting point of 166 to 168 °C. For `CO/N=C/c1ccnc(C(Oc2cc(Br)c3ncccc3c2)c2nnco2)c1` (stereo not shown) the value was 165 to 167 °C; for `CCO/N=C/c1ccnc(C(Oc2cc(F)c3ncccc3c2)c2nnco2)c1` (stereo not shown), 168 to 171 °C. For `CC(C)O/N=C/c1ccnc(C(Oc2cc(F)c3ncccc3c2)c2nnco2)c1` (stereo not shown), the melting point was 126 to 129 °C. For `C#CCO/N=C/c1ccnc(C(Oc2cc(F)c3ncccc3c2)c2nnco2)c1` (stereo not shown) the value was 128 to 130 °C.
